Source: patent US7001905B2, “Substituted diarylamines as MEK inhibitors” (Warner-Lambert Company, priority 2000, dated 2006)

Experiments:
MEK = target: T1, MEK (Homo sapiens, UniProt Q02750); experiment: in vitro MEK assay; assay type: biochemical
T1 construct: no tag is given for the 2D mutant
Outline: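 GST-MEK (10 μg) or activated GST-MEK-2E (S218E/S222E, 5 μg) phosphorylates kinase-dead GST-MAPK-KA (K71A, 5 μg) with 10 μM [γ-32P]ATP in 50 mM Tris pH 7.5 for 15 min at 30 °C. Read-out: SDS-PAGE, autoradiography and scintillation counting of excised bands.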

T1 sequence (Q02750 whole entry S218D/S222D, form open): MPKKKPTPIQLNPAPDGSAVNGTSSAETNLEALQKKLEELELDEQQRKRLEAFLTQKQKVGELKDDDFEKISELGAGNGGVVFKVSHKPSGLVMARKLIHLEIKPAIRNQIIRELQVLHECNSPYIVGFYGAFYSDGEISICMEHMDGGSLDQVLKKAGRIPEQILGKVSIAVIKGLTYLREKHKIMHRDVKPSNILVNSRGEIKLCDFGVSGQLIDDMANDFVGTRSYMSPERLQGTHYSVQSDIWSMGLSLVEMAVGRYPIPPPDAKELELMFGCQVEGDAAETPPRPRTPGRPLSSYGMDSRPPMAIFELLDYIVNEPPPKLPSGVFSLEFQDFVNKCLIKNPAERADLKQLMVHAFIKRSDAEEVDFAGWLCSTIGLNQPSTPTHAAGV

SMILES	IC50 (MEK)	melting point	in vitro MEK assay: % inhibition @ 1 μM (MEK; @ 1 μM)
CNC(=O)c1cc2c(c(F)c1F)N(c1ccc(I)cc1C)COC2=O [Example 2, 7,8-Difluoro-1-(4-iodo-2-methyl-phenyl)-4-oxo-1,4-dihydro-2H-benzo[d][1,3]oxazine-6-carboxylic acid methylamide]	6.6 µM	219 to 223 °C	
CNC(=O)c1cc(C(=O)O)c(Nc2ccc(I)cc2C)c(F)c1F [Example 3, 4,5-Difluoro-6-(-4-iodo-2-methyl-phenylamino)-N-methyl-isophthalamic acid]	2.4 µM	254 to 259 °C	
CNC(=O)c1cc(C(=O)NOCC2CC2)c(Nc2ccc(I)cc2C)c(F)c1F [Example 4, N^1-Cycloprolylmethoxy-4,5-difluoro-6-(4-iodo-2-methyl-phenylamino)-N^3-methyl-isophthalamide]	1.1 µM	198 to 202 °C	
Cc1cc(I)ccc1Nc1c(C(=O)NOCC2CC2)cc(C(=O)N(C)C)c(F)c1F [Example 6, N^1-Cyclopropylmethoxy-4,5-difluoro-6-(4-iodo-2-methyl-phenylamino)-N^3,N^3-dimethyl-isophthalamide]	4.3 µM	78 to 80 °C	
Cc1cc(I)ccc1Nc1c(C(=O)O)cc(C(=O)NCCN2CCCCC2)c(F)c1F [Example 102]			25%
